Where two headings read alike, the source gives them in different places. *1 amine or outer side, *2 acyl side, *3 side chain or, on linkers, in order; H or OH if unused. Where a SMILES comes first, the peptide text is derived from it. Bridges are numbered along the chain shown (N, C = ends). [ ]: non-standard residue; d: D form. 2Nal = N[C@@H](Cc1ccc2ccccc2c1)C(=O)O; AEF = NCCOc1ccc(C[C@H](N)C(=O)O)cc1; X1 = O=C(Cc1ccc(CN[*:1])cc1)[*:2]; 3Pal = N[C@@H](Cc1cccnc1)C(=O)O; αMeL = CC(C)C[C@](C)(N)C(=O)O; CH2COCH2 = O=C(C[*:1])C[*:2]; NMeS = CN[C@@H](CO)C(=O)O; Dab = NCC[C@H](N)C(=O)O

The subject of experiment [1] is IL-23 mediated STAT3 signalling (DB cells). In words: Functional inhibition of IL-23 mediated STAT3 signalling (phospho-STAT3 Tyr705) in DB cells. Type of experiment: cell-based, human. Conditions: for hIL-23 (pSTAT3) antagonist % inhibition: Table 3-2, maximal inhibitory response, EC80 of hIL-23. From the text:
Upon binding of IL-23, the IL-23R forms a heterodimer signalling complex together with IL-12R β1, which through the JAK2/STAT3 pathway promotes phosphorylation of STAT3 to form phospho-STAT3.
For compounds tested in this assay, the response was normalized relative to control values to calculate the IC50 and maximal inhibitory response from a concentration response curve of the compound in presence of a fixed concentration of human IL-23.
The assay procedure was as follows. […] Following preincubation of the DB cells with inhibitor for 15 min in a cell incubator (37° C., 5% CO2), 20 μL of the prepared 3× the EC80 of hIL-23 solution was added to each well and incubated for 90 min in a cell incubator (37° C., 5% CO2). For some wells buffer only or IL-23 only corresponding to the EC80 was added to obtain readouts needed for normalization. To terminate the assay, the plate was spun at 1000 G for 5 min to pellet cells, the supernatant removed using an 8-channel manual pipette, and then added 50 μL/well Complete Lysis Buffer from the MSD STAT3 kit (Cat #K150SVD, Mesoscale) to the cell pellet. To completely lyse cells to release phospho-STAT3 for detection, the plate was shaken for 10 min at room temperature (500 rpm) sealed with aluminium foil and placed at −80° C. for a minimum of 15 min. Detection of the phospho-STAT3 level in the cell lysate from the individual wells was determined using the MSD STAT3 kit (Cat #K150SVD, Mesoscale) and read on a Meso QuickPlex SQ 120 plate reader (Mesoscale).
For data analysis raw data counts from the Meso QuickPlex SQ 120 plate reader were normalized relative to the response by the EC80 of hIL-23 alone (no compound added) and the buffer level.

The target in experiment [2] is T1, human IL-23R (Homo sapiens, UniProt Q5VWK5).
T1 construct: Nanoluc luciferase (Nluc); secretion signal encoded by the plasmid (not specified); expressed in transfected cells; crude membranes used in the assay
T1 sequence (Q5VWK5 22-629): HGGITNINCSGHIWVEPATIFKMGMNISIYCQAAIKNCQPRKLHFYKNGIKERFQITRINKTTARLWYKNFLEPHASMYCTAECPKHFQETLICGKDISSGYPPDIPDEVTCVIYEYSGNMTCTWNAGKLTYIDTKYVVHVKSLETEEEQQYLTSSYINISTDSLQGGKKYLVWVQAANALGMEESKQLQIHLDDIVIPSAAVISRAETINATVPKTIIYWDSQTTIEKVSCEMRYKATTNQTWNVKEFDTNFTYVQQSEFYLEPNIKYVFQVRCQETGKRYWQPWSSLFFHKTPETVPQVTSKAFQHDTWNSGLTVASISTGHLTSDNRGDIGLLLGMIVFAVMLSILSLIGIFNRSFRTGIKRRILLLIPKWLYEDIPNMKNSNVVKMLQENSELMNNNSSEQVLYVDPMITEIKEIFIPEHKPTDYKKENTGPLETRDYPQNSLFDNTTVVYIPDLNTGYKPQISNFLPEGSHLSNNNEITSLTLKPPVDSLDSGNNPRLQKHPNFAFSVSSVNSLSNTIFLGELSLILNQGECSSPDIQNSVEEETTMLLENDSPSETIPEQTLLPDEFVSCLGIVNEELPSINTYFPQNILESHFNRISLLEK
In words: Binding assay: displacement of fluorophore (TAMRA)-labelled reference compound from human IL-23R (BRET, Nluc-IL23R fusion protein membranes). Conditions: for Emax: read-out: % displacement (hIL-23R binding). Background: BRET reads energy transfer from a luciferase to a nearby fluorophore.
From the text: The assay principle relies on Bioluminescence Resonance Energy Transfer (BRET) between a fluorophore-labelled reference compound binding to the IL-23R part of a fusion protein consisting of the IL-23R fused to a Nanoluc luciferase enzyme (Nanoluc). The Nanoluc is placed in the N-terminus in close proximity to the binding domain of the ligand. Upon close proximity between the fluorophore of the fluorophore-labelled compound and the Nanoluc of the fusion protein, bioluminescence energy generated from conversion of a Nanoluc substrate, is transferred to the fluorophore resulting in an increase in BRET. In presence of an unlabelled compound, the unlabelled compound displaces the fluorophore-labelled peptide from its binding site resulting in a decrease in BRET. The concentration for which half of the fluorophore-labelled peptide is displaced by the unlabelled compound depends on the affinity of the compound for the IL-23R, and is termed the IC50 concentration.
The plasmid also contained a gene to confer resistance for the antibiotic hygromycin. A cell line stably expressing the Nluc-IL23R fusion protein was generated by transfection of HEK293 cells with the expression plasmid and selected with hygromycin for 3 weeks in Growth medium consisting of DMEM w/Glutamax-I containing, 10% V/V FBS, 1% V/V P/S, 1 mM Sodium Pyruvate, and 1× NEAA, and 0.3 mg/mL hygromycin. The remaining cells were propagated and considered a stable expressing Nluc-IL23R fusion protein pool clone.
Cells expressing the Nluc-IL23R fusion protein were expanded in Growth medium and membranes prepared by homogenization of a cell pellet from 18 T175 flasks (4° C. in subsequent steps). The cell pellet was lysed Tris 10 mM, 7.5, 1 mM EDTA and protease inhibitors (Complete, Roche) and homogenized using a 15 mL glass-dounce by 50 strokes. The homogenate was spun at spin @1500 rpm for 10 min, the supernatant transferred to SV-34 tubes and spun at 40000 g for 20 min at 4° C. to pellet the crude membranes. The supernatant was then removed, the pellet resuspended in 5 mL buffer containing 50 mM HEPES pH 7.4, 5 mM EGTA, and 5 mM MgCl2, and homogenized. Aliquots of the resuspended and homogenized membranes containing the Nluc-IL23R fusion protein were stored at −80° C. until use.
The plate was sealed with light impermeable plate seals, and incubated on an orbital shaker 400 rpm for 2 hours at room temperature. To determine the BRET ratio, the plate seal was removed and 25 μL of the Nanoluc substrate (Promega N1572) diluted 1:500 was added to each well and incubated for 1-2 minutes on an orbital shaker at 400 rpm. […] The BRET ratio was calculated as the fluorescence from the TAMRA/nanoluc bioluminescence.
Compound potency (IC50) and maximal displacement (% displacement) were estimated by computer-aided curve fitting using a 4-parameter logistic (4PL) non-linear model. The IC50 and maximal for each compound was determined by computer-aided curve fitting using a 4-parameter logistic (4PL) non-linear model.

The mark [3] stands for this setting: Table 3-2, EC80 of hIL-23, read-out: hIL-23 (pSTAT3) antagonist IC50.

Turning to `CC(C)C[C@]1(C)NC(=O)[C@H](Cc2c[nH]c3ccccc23)NC(=O)[C@H](Cc2c[nH]c3ccccc23)NC(=O)[C@@H]2CSCC(=O)CSC[C@H](NC(=O)[C@H]([C@@H](C)O)NC(=O)[C@@H](NC(=O)CN)CSCC(=O)CSC[C@@H](C(=O)N[C@@H](CO)C(N)=O)NC1=O)C(=O)N[C@@H](Cc1c[nH]c3ccccc13)C(=O)N[C@@H](CCC(=O)O)C(=O)N2` (single isomer, unassigned) [I5 (isomer 3), H-GC(1a)TC(2a)WEC(2a)WW[2-Me-Leu]C(1a)S-[NH2], reference compound], in experiment [1], the “hIL-23 (pSTAT3) antagonist % inhibition” value worked out at 91%. In addition, the Emax in experiment [2] is 102%.
A word on the IC50: it is the concentration at which inhibition is half-maximal. As for `CC(C)C[C@]1(C)NC(=O)[C@H](Cc2ccc3ccccc3c2)NC(=O)[C@H](Cc2ccc(OCCN)cc2)NC(=O)[C@@H]2CCNC(=O)CC[C@H](NC(=O)[C@H](CO)NC(=O)Cc3ccc(cc3)CNC(=O)CC[C@@H](C(=O)N[C@@H](CCN)C(=O)N[C@@H](Cc3cccnc3)C(=O)N[C@H](Cc3c[nH]cn3)C(N)=O)NC1=O)C(=O)N[C@@H](Cc1c[nH]c3ccccc13)C(=O)N[C@@H](CCC(N)=O)C(=O)N2` [Compound 10, [4-Aminomethyl-phenylacetyl](1c)*SE(2c)WQ[Dab](2c)[Y(2-aminoethoxy)][2-Nal][2-Me-Leu]E(1c)[Dab][3-(3-Pyridyl)-Ala][{d}H]-[NH2]] ([X1]SEWQ[Dab][AEF][2Nal][αMeL]E[Dab][3Pal][dH]-NH2; lactam 3-6, N-10), the IC50 turned out to be 0.038 nM in experiment [1] (EC80 of hIL-23, read-out: IC50 (pSTAT3)) and 0.038 nM in experiment [1] (setting [3]). Also, in experiment [1], the “hIL-23 (pSTAT3) antagonist % inhibition” value was determined as 99%. The Emax in experiment [2] is 91%.
As to `CC(C)C[C@]1(C)NC(=O)[C@H](Cc2ccc3ccccc3c2)NC(=O)[C@H](Cc2ccc(OCCN)cc2)NC(=O)[C@@H]2CCNC(=O)CC[C@H](NC(=O)[C@H](CO)NC(=O)Cc3ccc(cc3)CNC(=O)CC[C@@H](C(=O)NCC[C@H](N)C(=O)N[C@@](C)(Cc3cccnc3)C(N)=O)NC1=O)C(=O)N[C@@H](Cc1c[nH]c3ccccc13)C(=O)N[C@@H](CCC(N)=O)C(=O)N2` [Compound 15, [4-Aminomethyl-phenylacetyl](1c)*SE(2c)WQ[Dab](2c)[Y(2-aminoethoxy)][2-Nal][2-Me-Leu]E(1c)[Iso-Dab][2-Me-3-(3-Pyridyl)-Ala]-[NH2]], in experiment [1] (setting [3]), the half-maximal inhibitory concentration (IC50) was found to be 12 nM. Further, the “hIL-23 (pSTAT3) antagonist % inhibition” value in experiment [1] amounted to 97%. Also, the Emax in experiment [2] worked out at 96%.
For `CNC(=O)[C@H](Cc1cncnc1)NC(=O)[C@H](CCN)NC(=O)[C@@H]1CCC(=O)NCc2ccc(cc2)CC(=O)N[C@@H](CO)C(=O)N[C@H]2CCC(=O)NCC[C@H](NC(=O)[C@H](CCC(N)=O)NC(=O)[C@H](Cc3c[nH]c4ccccc34)NC2=O)C(=O)N[C@@H](Cc2ccc(OCCN)cc2)C(=O)N[C@@H](Cc2ccc3ccccc3c2)C(=O)N[C@@](C)(CC(C)C)C(=O)N1` [Compound 19, [4-Aminomethyl-phenylacetyl](1c)*SE(2c)WQ[Dab](2c)[Y(2-aminoethoxy)][2-Nal][2-Me-Leu]E(1c)[Dab][3-(3,5-Pyrimidyl)-Ala]-[NHMe]], in that order: 0.16 nM, 100% and 103%.
In the case of `CNC(=O)[C@H](Cc1cccnc1)NC(=O)[C@H](CCN)NC(=O)[C@@H]1CCC(=O)NCc2ccc(cc2)CC(=O)N[C@@H](CO)C(=O)N[C@H]2CCC(=O)NCC[C@H](NC(=O)[C@H](C)NC(=O)[C@H](Cc3c[nH]c4ccccc34)NC2=O)C(=O)N[C@@H](Cc2ccc(OCCN)cc2)C(=O)N[C@@H](Cc2ccc3ccccc3c2)C(=O)N[C@@](C)(CC(C)C)C(=O)N1` [Compound 22, [4-Aminomethyl-phenylacetyl](1c)*SE(2c)WA[Dab](2c)[Y(2-aminoethoxy)][2-Nal][2-Me-Leu]E(1c)[Dab][3-(3-Pyridyl)-Ala]-[NHMe]] ([X1]SEWA[Dab][AEF][2Nal][αMeL]E[Dab][3Pal]-NHMe; lactam 3-6, N-10), the “hIL-23 (pSTAT3) antagonist % inhibition” value in experiment [1] worked out at 101%. Further, in experiment [2], the IC50 amounted to 0.035 nM.
For the molecule `CNC(=O)[C@H](Cc1cccnc1)NC(=O)[C@H](CCN)NC(=O)[C@@H]1CCC(=O)NCc2ccc(cc2)CC(=O)N[C@@H](CO)C(=O)N[C@H]2CCC(=O)NCC[C@H](NC(=O)[C@H](Cc3ccccc3)NC(=O)[C@H](Cc3c[nH]c4ccccc34)NC2=O)C(=O)N[C@@H](Cc2ccc(OCCN)cc2)C(=O)N[C@@H](Cc2ccc3ccccc3c2)C(=O)N[C@@](C)(CC(C)C)C(=O)N1` [Compound 23, [4-Aminomethyl-phenylacetyl](1c)*SE(2c)WF[Dab](2c)[Y(2-aminoethoxy)][2-Nal][2-Me-Leu]E(1c)[Dab][3-(3-Pyridyl)-Ala]-[NHMe]] ([X1]SEWF[Dab][AEF][2Nal][αMeL]E[Dab][3Pal]-NHMe; lactam 3-6, N-10), the IC50 in experiment [1] (setting [3]) stood at 5.2 nM. For the same molecule, in experiment [1], the “hIL-23 (pSTAT3) antagonist % inhibition” value amounted to 99%. In experiment [2], the concentration for half-maximal inhibition (IC50) amounted to 0.12 nM and the Emax was determined as 97%.
For the molecule `CNC(=O)[C@H](Cc1cccnc1)NC(=O)[C@H](CCN)NC(=O)[C@@H]1CCC(=O)NCc2ccc(cc2)CC(=O)N[C@@H](C)C(=O)N[C@H]2CCC(=O)NCC[C@H](NC(=O)[C@H](CCC(N)=O)NC(=O)[C@H](Cc3c[nH]c4ccccc34)NC2=O)C(=O)N[C@@H](Cc2ccc(N3CCOCC3)cc2)C(=O)N[C@@H](Cc2ccc3ccccc3c2)C(=O)NC(C)(C)C(=O)N1` [Compound 51, [4-aminomethyl-phenylacetyl](1c)*AE(2c)WQ[Dab](2c)[F(4-morpholine)][2Nal][Aib]E(1c)[Dab][3-(3-Pyridyl)-alanyl]-[NHMe]], the IC50 in experiment [1] (setting [3]) is 0.38 nM. Moreover, the “hIL-23 (pSTAT3) antagonist % inhibition” value in experiment [1] is 96%. For the same molecule, in experiment [2], the concentration for half-maximal inhibition (IC50) came to 0.073 nM and the Emax stood at 105%.
Turning to `CC(=O)N[C@H]1CCSC[C@@H](C(=O)N[C@@H](Cc2ccc(OCCN)cc2)C(=O)N[C@@H](Cc2c[nH]c3ccccc23)C(=O)N[C@@](C)(CCCCN)C(=O)N[C@@H](CCC(=O)O)C(=O)N[C@@H](CC(N)=O)C(=O)NCC(N)=O)NC(=O)[C@H](CCC(N)=O)NC(=O)[C@H](Cc2c[nH]c3ccccc23)NC(=O)[C@H]([C@@H](C)O)NC(=O)[C@H](CCC(N)=O)NC1=O` [Compound C, [Ac]-[Abu](16i)QTWQC(16i)[Y(2-aminoethoxy)]W[2-Me-Lys]ENG-[NH2], reference compound], the Emax in experiment [2] came to 102%.
Same read-out and setting: the result for `CC(C)C[C@]1(C)NC(=O)[C@H](Cc2ccc3ccccc3c2)NC(=O)[C@H](Cc2ccc(OCCN)cc2)NC(=O)[C@@H]2CSCC(=O)CSC[C@H](NC(=O)[C@H](CO)N(C)C(=O)Cc3ccc(cc3)CNC(=O)CC[C@@H](C(=O)N[C@@H](CCN)C(N)=O)NC1=O)C(=O)N[C@@H](Cc1c[nH]c3ccccc13)C(=O)N[C@@H](CCC(N)=O)C(=O)N2` [Ref 141, [4-Aminomethyl-phenylacetyl](1c)*[N—Me-Ser]C(2a)WQC(2a)[Y(2-aminoethoxy)][2-Nal][2-Me-Leu]E(1c)[Dab]-[NH2], reference compound] ([X1][NMeS]CWQC[AEF][2Nal][αMeL]E[Dab]-NH2; linker 3-6 via CH2COCH2; lactam N-10) reads 102%.

These data come from patent US20260327264A1, “PEPTIDE INHIBITORS OF INTERLEUKIN-23 RECEPTOR” (Zealand Pharma A/S, priority 2023, published 2026).
